The text below walks through data of patent publication US12458608B2 (NACUITY PHARMACEUTICALS, INC., priority 2019, dated 2025).

In data set [1] the test system is Light melanin human skin explant. The experiment in a line: Human skin explants exposed to UVA radiation, GSSG/thiol analysed by LCMS. The format is cell-based. The following applies: for Levels of thiol production in human skin exposed to UVA-induced oxidative skin damage: FIG. 3; for Dermal GSSG / levels of GSSG production: topical 100 mM in 10% DMSO/water 30 min prior to UVA (24 J/cm2), tissue harvested 24 hours after UVA, single donor, n=6. How it is done: Effects of NPI-001 (NACA 10 mM) and diNACA (10 mM) on human skin explants upon radiation (UVA) exposure.
Light melanin human skin explant (single donor; n=6) in transwells were exposed to UVA radiation (24 J/cm2) with and without topical application of the NPI-001 and diNACA at a final concentration of 100 mM (NPI-001 16.2 mg/ml; diNACA 32.2 mg/ml) dissolved or suspended in 10% DMSO/water and applied at ˜18 μl/cm2(˜6 μl/0.33 cm2) 30 min prior to UVA exposure (24 J/cm2 exposure). 24 hours following UVA exposure tissue was harvested, cut in half and heat separated into epidermal and dermal layers; weighed; immediate submersion of the dermal and epidermal layers into a derivatization solution, analyzed by LCMS.

Data set [2] addresses glutamate cysteine ligase (GCL, EC 6.3.2.2). The following applies: nonallosteric competitive inhibition; cited from earlier work.
For data set [3] the following is noted: cited from earlier work.
The subject of data set [4] is Reconstructed human epithelium (RHE) with melanocytes (MelanoDerm). In words: Reconstructed human epithelium (RHE) model to assess decrease of pigmentation in skin (photographs, melanin extraction). To be noted: for RHE pigmentation: MelanoDerm RHE cultured 14 days, basolateral treatment every other day, NACA 10 mM, diNACA 10 mM, 2% GSSG, vs relative day untreated control. The format is cell-based. The protocol: Reconstructed human epithelium (RHE) model to assess the ability of NPI-001 and NPI2 to decrease pigmentation in skin:
Reconstructed human epithelium (RHE) with melanocytes were obtained from MatTek (MelanoDerm™ cat #MEL-300B). RHE were cultured for 14 days with reapplication of media with basolateral treatment every other day. Day 0, Day 7 and Day 14 RHE were photographed and frozen for melanin extraction.
After harvest of RHE on Day 14, cultures were submerged for 30 min in 1% sodium bicarbonate and transferred to Eppendorf tubes with 500 μl Solvable™ reagent for overnight incubation at 60° C. A synthetic melanin standard curve was made in Solvable™ reagent from 0.5-0.0039 mg/ml in half dilutions. 200 μl of extracted melanin was transferred to a 96 well plate and read at 490 nm for quantification.

Entries after “also recorded” stand apart in the source; their conditions may differ.

As for `CC(=O)N[C@@H](CS)C(N)=O`, in data set [1], the “Levels of thiol production in human skin exposed to UVA-induced oxidative skin damage” value is “increased” and the “Dermal GSSG / levels of GSSG production” value is on record as “increased; also recorded: statistically significant increases”.

For the molecule `N[C@@H](CCC(=O)N[C@@H](CS)C(=O)NCC(=O)O)C(=O)O` [GSH, c-L-glutamyl-L-cysteinyl-glycine], in data set [2], the Ki was 2300 µM.

With `CC(=O)N[C@@H](CS)C(=O)O` [NAC, N-acetylcysteine], the “NAC detectable after administration” value in data set [3] (10-12 hours after administration) is recorded as “no NAC is detectable”. Besides, the Plasma half-life in data set [3] (humans) was 2.5 h. The Absorption and clearance entry in data set [3] (oral dose of 600 mg in humans) is “rapidly absorbed and then rapidly cleared”.

For `CC(=O)N[C@@H](CSSC[C@H](NC(C)=O)C(N)=O)C(N)=O` [diNACA, (2R,2R′)-3,3′-disulfanediyl bis(2-acetamidopropanamide)], the RHE pigmentation result in data set [4] is listed as “decreased; also recorded: significantly inhibited”. The RHE pigmentation entry in data set [4] (listed as NPI2) is on record as “decreased”. Moreover, in data set [4] (after 0, 7 and 14 days with treatment, read at 490 nm, vs untreated control at relative day of harvest), the “Melanin extracted from RHE” value is reported as “decreased”. Besides, in data set [1], the “Levels of thiol production in human skin exposed to UVA-induced oxidative skin damage” value is on record as “increased” and the “Dermal GSSG / levels of GSSG production” value is reported as “increased; also recorded: statistically significant increases”.
